From ChEMBL document CHEMBL4417631, “Oral peptide inhibitors of interleukin-23 receptor and their use to treat inflammatory bowel diseases” (2017)

Experiments:
[1] = Half life in simulated gastric fluid at 20 uM by LC-MS/MS analysis; assay type: ADME
[2] = Half life in simulated intestinal fluid at 20 uM by LC-MS/MS analysis; assay type: ADME
[3] = target: T1, Interleukin-23 receptor (Homo sapiens, UniProt Q5VWK5); experiment: Inhibition of interleukin-23 binding to human interleukin-23 receptor incubated for 2 hrs by competitive binding ELISA
T1 sequence (Q5VWK5 whole entry): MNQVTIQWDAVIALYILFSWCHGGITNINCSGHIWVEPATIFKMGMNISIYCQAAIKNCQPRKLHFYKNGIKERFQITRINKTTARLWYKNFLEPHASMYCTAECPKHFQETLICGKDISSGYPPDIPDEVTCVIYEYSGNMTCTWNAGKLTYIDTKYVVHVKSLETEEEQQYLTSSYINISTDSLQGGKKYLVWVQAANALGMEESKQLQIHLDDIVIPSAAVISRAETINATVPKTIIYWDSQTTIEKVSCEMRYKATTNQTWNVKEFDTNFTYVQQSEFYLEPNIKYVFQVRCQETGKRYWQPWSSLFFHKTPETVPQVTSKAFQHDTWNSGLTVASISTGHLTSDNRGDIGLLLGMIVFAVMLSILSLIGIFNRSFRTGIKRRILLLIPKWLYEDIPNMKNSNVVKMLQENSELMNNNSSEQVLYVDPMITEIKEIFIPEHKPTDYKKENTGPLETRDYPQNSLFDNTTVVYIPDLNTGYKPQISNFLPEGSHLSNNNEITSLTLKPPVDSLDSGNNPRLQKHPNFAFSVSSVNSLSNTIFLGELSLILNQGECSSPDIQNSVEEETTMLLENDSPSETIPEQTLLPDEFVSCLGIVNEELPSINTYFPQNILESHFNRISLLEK

[4] = target: T1, Interleukin-23 receptor; experiment: Inhibition of interleukin-23 receptor in human DB cells assessed as reduction in IL-23-stimulated STAT3 phosphorylation incubated for 30 mins by HTRF assay; assay type: cell-based
[5] = Inhibition of interleukin-23 binding to rat interleukin-23 receptor incubated for 2 hrs by competitive binding ELISA

Row | Compound | half-life at 20 µM [1] [h] | half-life at 20 µM [2] [h] | IC50 [3] [nM] | IC50 [4] [nM] | IC50 [5] [nM]
1 | CC(=O)N[C@@H](CCCNC(=N)N)C(=O)N[C@H]1CCSC[C@@H](C(=O)N[C@@H](Cc2ccc(OCCN)cc2)C(=O)N[C@@H](Cc2ccc3ccccc3c2)C(=O)N[C@@](C)(CCCCN)C(=O)N[C@@H](CCC(=O)O)C(=O)N[C@@H](CC(N)=O)C(=O)N[C@@H](CC(N)=O)C(N)=O)NC(=O)[C@H](CCC(N)=O)NC(=O)[C@H](Cc2c[nH]c3ccccc23)NC(=O)[C@H]([C@@H](C)O)NC(=O)[C@H](CCC(N)=O)NC1=O | 2 to 3 | < 1 |  |  | 
2 | CC(=O)N[C@@H](Cc1ccccc1)C(=O)N[C@H]1CCSC[C@@H](C(=O)N[C@@H](Cc2ccc(OCCN)cc2)C(=O)N[C@@H](Cc2ccc3ccccc3c2)C(=O)N[C@@](C)(CCCCN)C(=O)N[C@@H](CCC(=O)O)C(=O)N[C@@H](CC(N)=O)C(=O)N[C@@H](CC(N)=O)C(N)=O)NC(=O)[C@H](CCC(N)=O)NC(=O)[C@H](Cc2c[nH]c3ccccc23)NC(=O)[C@H]([C@@H](C)O)NC(=O)[C@H](CCC(N)=O)NC1=O | 2 to 3 | 1 to 2 |  |  | 
3 | CC(=O)N[C@H]1CCSC[C@@H](C(=O)N[C@@H](Cc2ccc(O)cc2)C(=O)N[C@@H](Cc2c[nH]c3ccccc23)C(=O)N[C@@H](CCCNC(=N)N)C(=O)N[C@@H](CCC(=O)O)C(=O)N[C@@H](CC(N)=O)C(=O)NCC(=O)NCCOCC(=O)N[C@H](CCCCN)C(N)=O)NC(=O)[C@H](CCC(N)=O)NC(=O)[C@H](Cc2c[nH]c3ccccc23)NC(=O)[C@H]([C@@H](C)O)NC(=O)[C@H](CCC(N)=O)NC1=O |  | < 1 | 100 to 1000 | 25 to 100 | 100 to 1000
4 | CC(=O)N[C@H](C(=O)N[C@@H](CCC(N)=O)C(=O)N[C@H](C(=O)N[C@@H](Cc1c[nH]c2ccccc12)C(=O)N[C@@H](CCC(N)=O)C(=O)N[C@H](C(=O)N[C@@H](Cc1ccc(O)cc1)C(=O)N[C@@H](Cc1ccc2ccccc2c1)C(=O)N[C@@](C)(CCCN)C(=O)N[C@@H](CCC(=O)O)C(=O)N[C@@H](CC(N)=O)C(=O)NCC(N)=O)C(C)(C)S)[C@@H](C)O)C(C)(C)S |  | 3 to 6 | 25 to 100 | 10 to 25 | 100 to 1000
5 | COc1ccc(C[C@H](NC(=O)[C@@H](NC(=O)[C@H](CCC(N)=O)NC(=O)[C@H](Cc2c[nH]c3ccccc23)NC(=O)[C@@H](NC(=O)[C@H](CC(N)=O)NC(=O)[C@@H](NC(C)=O)C(C)(C)S)[C@@H](C)O)C(C)(C)S)C(=O)N[C@@H](Cc2ccc3ccccc3c2)C(=O)NC2(C(=O)N[C@@H](CCCCNC(C)=O)C(=O)N[C@@H](CC(N)=O)C(=O)N[C@@H](CC(N)=O)C(N)=O)CCOCC2)cc1 | > 6 | > 6 |  |  | 
6 | COc1ccc(C[C@H](NC(=O)[C@@H](NC(=O)[C@H](CCC(N)=O)NC(=O)[C@H](Cc2c[nH]c3ccccc23)NC(=O)[C@@H](NC(=O)[C@H](CC(N)=O)NC(=O)[C@@H](NC(C)=O)C(C)(C)S)[C@@H](C)O)C(C)(C)S)C(=O)N[C@@H](Cc2ccc3ccccc3c2)C(=O)NC2(C(=O)N[C@@H](CCCCNC(C)=O)C(=O)N[C@@H](CC(N)=O)C(=O)N[C@@H](CC(N)=O)C(N)=O)CCCCC2)cc1 | > 6 | 3 to 6 |  |  | 
7 | CC(=O)NCCCC[C@H](NC(=O)C1(NC(=O)[C@H](Cc2ccc3ccccc3c2)NC(=O)[C@H](Cc2ccc(C(N)=O)cc2)NC(=O)[C@@H](NC(=O)[C@H](CCC(N)=O)NC(=O)[C@H](Cc2c[nH]c3ccccc23)NC(=O)[C@@H](NC(=O)[C@H](CC(N)=O)NC(=O)[C@@H](NC(C)=O)C(C)(C)S)[C@@H](C)O)C(C)(C)S)CCCC1)C(=O)N[C@@H](CC(N)=O)C(=O)N[C@@H](CC(N)=O)C(N)=O | > 6 | > 6 |  |  | 
8 | COc1ccc(C[C@H](NC(=O)[C@@H](NC(=O)[C@H](CCC(N)=O)NC(=O)[C@H](Cc2c[nH]c3ccccc23)NC(=O)[C@@H](NC(=O)[C@H](CCC(N)=O)NC(=O)[C@@H](NC(C)=O)C(C)(C)S)[C@@H](C)O)C(C)(C)S)C(=O)N[C@@H](Cc2cccc3ccccc23)C(=O)N[C@@](C)(CCCCN)C(=O)N[C@@H](CCCCNC(C)=O)C(=O)N[C@@H](CC(N)=O)C(=O)NCC(N)=O)cc1 |  | > 6 | 25 to 100 | 25 to 100 | 100 to 1000
9 | CC(=O)N[C@H](C(=O)N[C@@H](CCC(N)=O)C(=O)N[C@H](C(=O)N[C@@H](Cc1c[nH]c2ccccc12)C(=O)N[C@@H](CCC(N)=O)C(=O)N[C@H](C(=O)N[C@@H](Cc1ccc(O)cc1)C(=O)N[C@@H](Cc1c[nH]c2ccccc12)C(=O)N[C@@](C)(CCCN)C(=O)N[C@@H](CCC(=O)O)C(=O)N[C@@H](CC(N)=O)C(=O)NCC(N)=O)C(C)(C)S)[C@@H](C)O)C(C)(C)S |  | 3 to 6 | 100 to 1000 | 25 to 100 | 100 to 1000
10 | CC(=O)NCCCC[C@H](NC(=O)C(C)(C)NC(=O)[C@H](Cc1ccc2ccccc2c1)NC(=O)[C@H](Cc1ccc(OCCN)cc1)NC(=O)[C@@H](NC(=O)[C@H](CCC(N)=O)NC(=O)[C@H](Cc1c[nH]c2ccccc12)NC(=O)[C@@H](NC(=O)[C@H](CC(N)=O)NC(=O)[C@@H](NC(=O)[C@@H](Cc1ccccc1)NC(C)=O)C(C)(C)S)[C@@H](C)O)C(C)(C)S)C(=O)N[C@@H](CC(N)=O)C(=O)N[C@@H](CC(N)=O)C(N)=O | > 6 | > 6 |  |  | 
11 | COc1ccc(C[C@H](NC(=O)[C@@H](NC(=O)[C@H](CCC(N)=O)NC(=O)[C@H](Cc2c[nH]c3ccccc23)NC(=O)[C@@H](NC(=O)[C@H](CC(N)=O)NC(=O)[C@@H](NC(C)=O)C(C)(C)S)[C@@H](C)O)C(C)(C)S)C(=O)N[C@@H](Cc2ccc3ccccc3c2)C(=O)N[C@@](C)(CC(C)C)C(=O)N[C@@H](CCCCNC(C)=O)C(=O)N[C@@H](CC(N)=O)C(=O)N[C@@H](CC(N)=O)C(N)=O)cc1 | > 6 | > 6 |  |  | 

The remaining lines, values ahead:

Row | half-life at 20 µM [1] [h] | half-life at 20 µM [2] [h] | IC50 [3] [nM] | IC50 [4] [nM] | IC50 [5] [nM] | Compound
12 | > 6 | > 6 |  |  |  | CC(=O)NCCCC[C@H](NC(=O)[C@](C)(CC(C)C)NC(=O)[C@H](Cc1ccc2ccccc2c1)NC(=O)[C@H](Cc1ccc(C(N)=O)cc1)NC(=O)[C@@H](NC(=O)[C@H](CCC(N)=O)NC(=O)[C@H](Cc1c[nH]c2ccccc12)NC(=O)[C@@H](NC(=O)[C@H](CC(N)=O)NC(=O)[C@@H](NC(C)=O)C(C)(C)S)[C@@H](C)O)C(C)(C)S)C(=O)N[C@@H](CC(N)=O)C(=O)N[C@@H](CC(N)=O)C(N)=O
13 |  | 3 to 6 | 25 to 100 | 10 to 25 | 25 to 100 | CC(=O)NCCCC[C@H](NC(=O)[C@](C)(CCCN)NC(=O)[C@H](Cc1c[nH]c2ccccc12)NC(=O)[C@H](Cc1ccc(O)cc1)NC(=O)[C@@H]1CSCC[C@H](NC(C)=O)C(=O)N[C@@H](CCC(N)=O)C(=O)N[C@@H]([C@@H](C)O)C(=O)N[C@@H](Cc2c[nH]c3ccccc23)C(=O)N[C@@H](CCC(N)=O)C(=O)N1)C(=O)N[C@@H](CC(N)=O)C(=O)NCC(N)=O
14 | 3 to 6 | > 6 |  |  |  | CC(=O)NCCCC[C@H](NC(=O)C1(NC(=O)[C@H](Cc2ccc3ccccc3c2)NC(=O)[C@H](Cc2ccc(C(N)=O)cc2)NC(=O)[C@@H](NC(=O)[C@H](CCC(N)=O)NC(=O)[C@H](Cc2c[nH]c3ccccc23)NC(=O)[C@@H](NC(=O)[C@H](CC(N)=O)NC(=O)[C@@H](NC(C)=O)C(C)(C)S)[C@@H](C)O)C(C)(C)S)CCOCC1)C(=O)N[C@@H](CC(N)=O)C(=O)N[C@@H](CC(N)=O)C(N)=O
15 |  | > 6 | 25 to 100 | 10 to 25 | 25 to 100 | COc1ccc(C[C@H](NC(=O)[C@@H](NC(=O)[C@H](CCC(N)=O)NC(=O)[C@H](Cc2c[nH]c3ccccc23)NC(=O)[C@@H](NC(=O)[C@H](CCC(N)=O)NC(=O)[C@@H](NC(C)=O)C(C)(C)S)[C@@H](C)O)C(C)(C)S)C(=O)N[C@@H](Cc2c[nH]c3ccccc23)C(=O)N[C@@](C)(CCCCN)C(=O)N[C@@H](CCCCNC(C)=O)C(=O)N[C@@H](CC(N)=O)C(=O)NCC(N)=O)cc1
16 | 3 to 6 | > 6 |  |  |  | CC(=O)NCCCC[C@H](NC(=O)C(C)(C)NC(=O)[C@H](Cc1ccc2ccccc2c1)NC(=O)[C@H](Cc1ccc(OCCN)cc1)NC(=O)[C@@H](NC(=O)[C@H](CCC(N)=O)NC(=O)[C@H](Cc1c[nH]c2ccccc12)NC(=O)[C@@H](NC(=O)[C@H](CC(N)=O)NC(=O)[C@@H](NC(=O)[C@@H](Cc1ccccc1)NC(C)=O)C(C)(C)S)[C@@H](C)O)C(C)(C)S)C(=O)N[C@@H](CC(N)=O)C(=O)NCCC(N)=O
17 | > 6 | > 6 |  |  |  | CC(=O)NCCCC[C@H](NC(=O)C1(NC(=O)[C@H](Cc2ccc3ccccc3c2)NC(=O)[C@H](Cc2ccc(C(N)=O)cc2)NC(=O)[C@@H](NC(=O)[C@H](CCC(N)=O)NC(=O)[C@H](Cc2c[nH]c3ccccc23)NC(=O)[C@@H](NC(=O)[C@H](CC(N)=O)NC(=O)[C@@H](NC(C)=O)C(C)(C)S)[C@@H](C)O)C(C)(C)S)CCCCC1)C(=O)N[C@@H](CC(N)=O)C(=O)N[C@@H](CC(N)=O)C(N)=O
